Test: Solubilizing effect of surfactants for perfume oil in water (10% by weight aqueous surfactant solution, perfume oil quantity before clouding)
Type: physicochemical
Details: 10% by weight aqueous solution of surfactant, higher = better solubilizing effect
Method: 1. In order to test the effect according to the invention, a 10% by weight aqueous solution of various surfactants was prepared. To this end, the surfactant was first mixed with the perfume oil and water was then added. The higher the percentage content of perfume oil, the better the solubilizing effect of the surfactant. In Table 1 below, V stands for known products and E for alkoxylated esters according to the invention.
Examples E1 and E2 according to the invention use a citric acid ester as described in 1.1 or 1.2.

Quantity (% by wt.) before clouding (perfume oil: Lemon oil terpene): 4 % by wt.
Quantity (% by wt.) before clouding (perfume oil: Octyl aldehyde): 2 % by wt.
Quantity (% by wt.) before clouding (perfume oil: Orange oil): 4 % by wt.
Substance: 2-Hydroxy-C12-(PO)1-(EO)9-glycol ether [Example V1a]
